Biological target: human PCSK9 (Homo sapiens, UniProt Q8NBP7)
Assay: PCSK9 ligand binding TR-FRET assay (interference with binding of human PCSK9 to human LDLR)
Conditions: for Max % inhibition: PCSK9 FRET assay, efficacy (Amax), 100% = 1 uM unlabeled human PCSK9, 0% = DMSO; for IC50: TR-FRET, human PCSK9 Alexa Fluor 647 / human LDLR extracellular domain-Europium Kryptate, read-out: PCSK9 FRET Assay IC50
Procedure, shortened: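 Threefold compound dilutions were pre-incubated 30 min with PCSK9, after which 4 nM Europium Kryptate-tagged human LDLR ectodomain was added for a further 2 h.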

Sequence of human PCSK9 (Q8NBP7 153-692): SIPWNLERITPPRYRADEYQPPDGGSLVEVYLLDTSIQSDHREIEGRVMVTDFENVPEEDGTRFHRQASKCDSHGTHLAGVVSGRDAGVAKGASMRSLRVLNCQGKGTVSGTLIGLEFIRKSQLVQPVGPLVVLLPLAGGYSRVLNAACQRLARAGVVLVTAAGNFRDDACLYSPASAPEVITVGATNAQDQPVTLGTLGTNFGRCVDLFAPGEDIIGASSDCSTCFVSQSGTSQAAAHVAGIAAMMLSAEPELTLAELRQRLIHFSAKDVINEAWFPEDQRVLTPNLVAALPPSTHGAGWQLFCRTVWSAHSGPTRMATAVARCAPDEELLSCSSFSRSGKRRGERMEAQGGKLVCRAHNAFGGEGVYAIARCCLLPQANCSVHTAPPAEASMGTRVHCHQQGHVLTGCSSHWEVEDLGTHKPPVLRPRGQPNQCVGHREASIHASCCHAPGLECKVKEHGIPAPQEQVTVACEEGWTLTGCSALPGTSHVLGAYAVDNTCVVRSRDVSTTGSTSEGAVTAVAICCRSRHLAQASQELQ
Sequence of human PCSK9 (Q8NBP7 31-152 partner limits assumed): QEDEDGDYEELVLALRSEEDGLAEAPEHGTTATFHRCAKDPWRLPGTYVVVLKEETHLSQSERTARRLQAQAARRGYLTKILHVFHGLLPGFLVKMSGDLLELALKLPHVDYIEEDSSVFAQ

Row | Structure (SMILES) | Max % inhibition [%] | IC50 [nM]
1 | COC[C@@H]1NC(=O)[C@H](C)N(Cc2ccc(Cl)cc2Oc2ccc(-c3cnc(CN(C)C)n3C)cc2)C(=O)C[C@@H](CC23CC(C2)C3)C(=O)N(C)[C@H]2CCCC[C@@H]2NC(=O)C[C@H](Cc2ccc(Cl)cc2)N(C)C1=O [Compound 100, (4S,7S,10S,14R,16aS,20aS)-14-(bicyclo[1.1.1]pentan-1-ylmethyl)-11-(4-chloro-2-(4-(2-((dimethylamino)methyl)-1-methyl-1H-imidazol-5-yl)phenoxy)benzyl)-4-(4-chlorobenzyl)-7-(methoxymethyl)-5,10,16-trimethylhexadecahydrobenzo[l][1,4,7,11,14]pentaazacyclooctadecine-2,6,9,12,15(3H)-pentaone] | 105.41 | 5.4
2 | COC[C@@H]1NC(=O)[C@H](C)N(Cc2ccc(C(F)F)cc2Oc2ccc(-c3cnc(CN(C)C)n3C)cc2)C(=O)C[C@@H](Cc2ccccc2)C(=O)N(C)[C@@H](C)CNC(=O)C[C@H](Cc2ccc(Cl)cc2)N(C)C1=O [Compound 42, (2S,5S,8S,13S,16R)-16-benzyl-8-(4-chlorobenzyl)-1-(4-(difluoromethyl)-2-(4-(2-((dimethylamino)methyl)-1-methyl-1H-imidazol-5-yl)phenoxy)benzyl)-5-(methoxymethyl)-2,7,13,14-tetramethyl-1,4,7,11,14-pentaazacyclooctadecane-3,6,10,15,18-pentaone] | 102.18 | 24.5
3 | COC[C@@H]1NC(=O)[C@H](CCC(=O)OC(C)(C)C)N(Cc2ccc(Cl)cc2Oc2ccc(-c3cnc(CN(C)C)n3C)cc2)C(=O)C[C@@H](Cc2ccccc2)C(=O)N(C)[C@@H](C)CNC(=O)C[C@H](Cc2ccc(Cl)cc2)N(C)C1=O [Compound 10, tert-butyl 3-((2S,5S,8S,13S,16R)-16-benzyl-1-(4-chloro-2-(4-(2-((dimethylamino)methyl)-1-methyl-1H-imidazol-5-yl)phenoxy)benzyl)-8-(4-chlorobenzyl)-5-(methoxymethyl)-7,13,14-trimethyl-3,6,10,15,18-pentaoxo-1,4,7,11,14-pentaazacyclooctadecan-2-yl)propanoate] | 101.88 | 4.3
4 | COC[C@@H]1NC(=O)[C@H](C)N(Cc2ccc(OC(F)(F)F)cc2Oc2ccc(-c3cnc(CN(C)C)n3C)cc2)C(=O)C[C@@H](Cc2ccccc2)C(=O)N(C)[C@@H](C)CNC(=O)C[C@H](Cc2ccc(Cl)cc2)N(C)C1=O [Compound 35, (2S,5S,8S,13S,16R)-16-benzyl-8-(4-chlorobenzyl)-1-(2-(4-(2-((dimethylamino)methyl)-1-methyl-1H-imidazol-5-yl)phenoxy)-4-(trifluoromethoxy)benzyl)-5-(methoxymethyl)-2,7,13,14-tetramethyl-1,4,7,11,14-pentaazacyclooctadecane-3,6,10,15,18-pentaone] | 104.05 | 4.2
5 | COC[C@@H]1NC(=O)[C@H](C)N(Cc2ccc(Cl)cc2Oc2ccc(-c3cnc(CN(C)C)n3C)cc2)C(=O)C[C@@H](Cc2ccccc2)C(=O)N(C)CC(C)(C)NC(=O)C[C@H](Cc2ccc(Cl)cc2)N(C)C1=O [Compound 65, (2S,5S,8S,16R)-16-benzyl-1-(4-chloro-2-(4-(2-((dimethylamino)methyl)-1-methyl-1H-imidazol-5-yl)phenoxy)benzyl)-8-(4-chlorobenzyl)-5-(methoxymethyl)-2,7,12,12,14-pentamethyl-1,4,7,11,14-pentaazacyclooctadecane-3,6,10,15,18-pentaone] | 92.63 | 189
6 | COC[C@@H]1NC(=O)[C@H](C)N(Cc2ccc(Cl)cc2Oc2ccc(-c3cnc(CN4CCC4)n3C)cc2)C(=O)C[C@@H](Cc2ccccc2)C(=O)N(C)[C@H]2CCCC[C@@H]2NC(=O)C[C@H](Cc2ccc(Cl)cc2)N(C)C1=O [Compound 16, (4S,7S,10S,14R,16aS,20aS)-11-(2-(4-(2-(azetidin-1-ylmethyl)-1-methyl-1H-imidazol-5-yl)phenoxy)-4-chlorobenzyl)-14-benzyl-4-(4-chlorobenzyl)-7-(methoxymethyl)-5,10,16-trimethylhexadecahydrobenzo[l][1,4,7,11,14]pentaazacyclooctadecine-2,6,9,12,15(3H)-pentaone] | 92.71 | 1.7
7 | COC[C@H]1CNC(=O)C[C@H](Cc2ccc(Cl)cc2)N(C)C(=O)[C@H](COC)NC(=O)[C@H](C)N(Cc2ccc(Cl)cc2Oc2ccc(-c3cnc(CN(C)C)n3C)cc2)C(=O)C[C@@H](Cc2ccccc2)C(=O)N1C [Compound 27, (2S,5S,8S,13R,16R)-16-benzyl-1-(4-chloro-2-(4-(2-((dimethylamino)methyl)-1-methyl-1H-imidazol-5-yl)phenoxy)benzyl)-8-(4-chlorobenzyl)-5,13-bis(methoxymethyl)-2,7,14-trimethyl-1,4,7,11,14-pentaazacyclooctadecane-3,6,10,15,18-pentaone] | 101.53 | 1.1
8 | COC[C@@H]1NC(=O)[C@H](C)N(Cc2ccc(Cl)cc2Oc2ccc(-c3cnc(CN4CCCC4)n3C)cc2)C(=O)C[C@@H](Cc2ccccc2)C(=O)N(C)[C@@H](CCF)CNC(=O)C[C@H](Cc2ccc(Cl)cc2)N(C)C1=O [Compound 83, (2S,5S,8S,13S,16R)-16-benzyl-1-(4-chloro-2-(4-(1-methyl-2-(pyrrolidin-1-ylmethyl)-1H-imidazol-5-yl)phenoxy)benzyl)-8-(4-chlorobenzyl)-13-(2-fluoroethyl)-5-(methoxymethyl)-2,7,14-trimethyl-1,4,7,11,14-pentaazacyclooctadecane-3,6,10,15,18-pentaone] | 99.18 | 1.7

Now from value to compound:

Row | Max % inhibition [%] | IC50 [nM] | Structure (SMILES)
9 | 95.15 | 650 | COC[C@@H]1NC(=O)[C@H](C)N(Cc2ccc(Cl)cc2Oc2ccc(-c3cnc(CN(C)C)n3C)cc2)C(=O)C[C@@H](Cc2ccccc2)C(=O)N(C)[C@@H]2CCOC[C@H]2NC(=O)C[C@H](Cc2ccc(Cl)cc2)N(C)C1=O [Compound 224, (4S,7S,10S,14R,16aR,20aS)-14-benzyl-11-(4-chloro-2-(4-(2-((dimethylamino)methyl)-1-methyl-1H-imidazol-5-yl)phenoxy)benzyl)-4-(4-chlorobenzyl)-7-(methoxymethyl)-5,10,16-trimethyltetradecahydro-1H-pyrano[3,4-l][1,4,7,11,14]pentaazacyclooctadecine-2,6,9,12,15(3H)-pentaone]
10 | 108.15 | 3.2 | COC[C@@H]1NC(=O)[C@H](C)N(Cc2ccc(Cl)cc2Oc2ccc(-n3cnc(CN4CCCC4)c3C)cc2)C(=O)C[C@@H](Cc2ccccc2)C(=O)N(C)[C@@H](C)CNC(=O)C[C@H](Cc2ccc(Cl)cc2)N(C)C1=O [Compound 259, (2S,5S,8S,13S,16R)-16-benzyl-1-(4-chloro-2-(4-(5-methyl-4-(pyrrolidin-1-ylmethyl)-1H-imidazol-1-yl)phenoxy)benzyl)-8-(4-chlorobenzyl)-5-(methoxymethyl)-2,7,13,14-tetramethyl-1,4,7,11,14-pentaazacyclooctadecane-3,6,10,15,18-pentaone]
11 | 84.54 | 6.1 | C[C@@H]1CC(=O)N(Cc2ccc(Cl)cc2Oc2ccc(-c3cnc(CN(C)C)n3C)cc2)[C@@H](C)C(=O)N[C@@H](CO)C(=O)N(C)[C@@H](Cc2ccc(Cl)cc2)CC(=O)NC[C@H](C)N(C)C1=O [Compound 193, (2S,5S,8S,13S,16R)-1-(4-chloro-2-(4-(2-((dimethylamino)methyl)-1-methyl-1H-imidazol-5-yl)phenoxy)benzyl)-8-(4-chlorobenzyl)-5-(hydroxymethyl)-2,7,13,14,16-pentamethyl-1,4,7,11,14-pentaazacyclooctadecane-3,6,10,15,18-pentaone]
12 | 98.98 | 1.4 | COC[C@@H]1NC(=O)[C@H](CCCN2CCOCC2)N(Cc2ccc(Cl)cc2Oc2ccc(-c3cnc(CN(C)C)n3C)cc2)C(=O)C[C@@H](Cc2ccccc2)C(=O)N(C)[C@@H](C)CNC(=O)C[C@H](Cc2ccc(Cl)cc2)N(C)C1=O [Compound 158, (2S,5S,8S,13S,16R)-16-benzyl-1-(4-chloro-2-(4-(2-((dimethylamino)methyl)-1-methyl-1H-imidazol-5-yl)phenoxy)benzyl)-8-(4-chlorobenzyl)-5-(methoxymethyl)-7,13,14-trimethyl-2-(3-morpholinopropyl)-1,4,7,11,14-pentaazacyclooctadecane-3,6,10,15,18-pentaone]
13 | 94.82 | 2.1 | COC[C@@H]1NC(=O)[C@H](C)N(Cc2ccc(Cl)cc2Oc2ccc(-c3cnc(CN4CC[C@H](O)C4)n3C)cc2)C(=O)C[C@@H](Cc2ccccc2)C(=O)N(C)[C@@H](C)CNC(=O)C[C@H](Cc2ccc(Cl)cc2)N(C)C1=O [Compound 220, (2S,5S,8S,13S,16R)-16-benzyl-1-(4-chloro-2-(4-(2-(((S)-3-hydroxypyrrolidin-1-yl)methyl)-1-methyl-1H-imidazol-5-yl)phenoxy)benzyl)-8-(4-chlorobenzyl)-5-(methoxymethyl)-2,7,13,14-tetramethyl-1,4,7,11,14-pentaazacyclooctadecane-3,6,10,15,18-pentaone]
14 | 109.05 | 2.1 | Cc1c(CN2CCCC2)ncn1-c1ccc(Oc2cc(Cl)ccc2CN2C(=O)C[C@@H](Cc3ccccc3)C(=O)N(C)[C@H]3CCCC[C@@H]3NC(=O)C[C@H](Cc3ccc(Cl)cc3)N(C)C(=O)[C@H](CO)NC(=O)[C@@H]2C)cc1 [Compound 260, (4S,7S,10S,14R,16aS,20aS)-14-benzyl-11-(4-chloro-2-(4-(5-methyl-4-(pyrrolidin-1-ylmethyl)-1H-imidazol-1-yl)phenoxy)benzyl)-4-(4-chlorobenzyl)-7-(hydroxymethyl)-5,10,16-trimethylhexadecahydrobenzo[l][1,4,7,11,14]pentaazacyclooctadecine-2,6,9,12,15(3H)-pentaone]
